According to PubChem BioAssay AID330 (DTP/NCI, 2004):
Values joined by “and” are separate entries in the source; they are usually repeats but may differ in a detail not shown here. Identical values can stand only once. Toxic doses and inconclusive results are not listed.

System: P388 leukemia ip, CD2F1 mice, survival T/C
Assay: NCI In Vivo Anticancer Drug Screen. Data for tumor model P388 Leukemia (intraperitoneal) in CD2F1 (CDF1) mice
Conditions: endpoint: median survival time, higher = longer survival
Summary of the method: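 Mice carrying the transplanted tumor received test compound or vehicle. Survival was recorded in each group, and the value is the treated-group measurement divided by that of the vehicle-treated control group.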

[1] = dose: 25.0 mg/kg/injection, schedule: Q01DX009 (ip), vehicle: Klucel (hydroxypropylcellulose) (HPC)
[2] = dose: 50.0 mg/kg/injection, schedule: Q01DX009 (ip), vehicle: Klucel (hydroxypropylcellulose) (HPC)
[3] = dose: 100.0 mg/kg/injection, schedule: Q01DX009 (ip), vehicle: Klucel (hydroxypropylcellulose) (HPC)
[4] = dose: 200.0 mg/kg/injection, schedule: Q01DX009 (ip), vehicle: Klucel (hydroxypropylcellulose) (HPC)
[5] = dose: 400.0 mg/kg/injection, schedule: Q01DX009 (ip), vehicle: Klucel (hydroxypropylcellulose) (HPC)
[6] = dose: 60.0 mg/kg/injection, schedule: Q01DX005 (ip), vehicle: saline with Tween-80
[7] = dose: 120.0 mg/kg/injection, schedule: Q01DX005 (ip), vehicle: saline with Tween-80
[8] = dose: 240.0 mg/kg/injection, schedule: Q01DX005 (ip), vehicle: saline with Tween-80
[9] = dose: 50.0 mg/kg/injection, schedule: Q01DX005 (ip), vehicle: saline with Tween-80
[10] = dose: 100.0 mg/kg/injection, schedule: Q01DX005 (ip), vehicle: saline with Tween-80
[11] = dose: 50.0 mg/kg/injection, schedule: Q01DX005 (ip), vehicle: Klucel (hydroxypropylcellulose) (HPC)
[12] = dose: 100.0 mg/kg/injection, schedule: Q01DX005 (ip), vehicle: Klucel (hydroxypropylcellulose) (HPC)
[13] = dose: 200.0 mg/kg/injection, schedule: Q01DX005 (ip), vehicle: Klucel (hydroxypropylcellulose) (HPC)
[14] = dose: 50.0 mg/kg/injection, schedule: Q01DX009 (ip), vehicle: saline with Tween-80
[15] = dose: 100.0 mg/kg/injection, schedule: Q01DX009 (ip), vehicle: saline with Tween-80
[16] = dose: 200.0 mg/kg/injection, schedule: Q01DX009 (ip), vehicle: saline with Tween-80
[17] = dose: 12.5 mg/kg/injection, schedule: Q01DX009 (ip), vehicle: Klucel (hydroxypropylcellulose) (HPC)
[18] = dose: 50.0 mg/kg/injection, schedule: Q01DX009 (ip), vehicle: saline
[19] = dose: 200.0 mg/kg/injection, schedule: Q01DX005 (ip), vehicle: saline with Tween-80
[20] = dose: 50.0 mg/kg/injection, schedule: Q01DX005 (ip), vehicle: saline
[21] = dose: 100.0 mg/kg/injection, schedule: Q01DX005 (ip), vehicle: saline
[22] = dose: 200.0 mg/kg/injection, schedule: Q01DX005 (ip), vehicle: saline

O=C1Nc2ccccc2/C1=C\c1ccccc1O
T/C [1]: 98 % of control
T/C [2]: 96 % of control
T/C [3]: 95 % of control
T/C [4]: 98 % of control
T/C [5]: 88 % of control

O=C(Nc1cccc(Cl)c1)Oc1cccnc1
T/C [6]: 99 % of control
T/C [7]: 88 % of control
T/C [8]: 89 % of control

CC(=O)NC1=NN(C(C)=O)C(c2ccccc2)S1=O (configuration not stated)
T/C [9]: 108 % of control
T/C [10]: 107 % of control

COC(=O)Nc1nc2ccc(C3c4c(n[nH]c4C)CC(C)(O)C3C(C)=O)cc2[nH]1 (configuration not stated)
T/C [6]: 98 % of control
T/C [7]: 101 % of control
T/C [8]: 101 % of control

COc1ccc(N=Nc2c(-c3cccs3)nn(C(N)=S)c2C(F)(F)F)cc1
T/C [11]: 97 % of control
T/C [12]: 95 % of control
T/C [13]: 97 % of control

CCOC(=O)C1=NN(c2ccccc2)C(=O)C1c1ccccc1 (configuration not stated)
T/C [14]: 90 % of control
T/C [15]: 93 % of control
T/C [16]: 107 % of control

Cc1c(N=Nc2ccccc2C(F)(F)F)c(-c2ccccc2)nn1C(=S)S
T/C (dose: 100.0 mg/kg/injection, schedule: Q01DX001 (ip), vehicle: saline with Tween-80): 89 % of control
T/C (dose: 200.0 mg/kg/injection, schedule: Q01DX001 (ip), vehicle: saline with Tween-80): 90 % of control
T/C (dose: 400.0 mg/kg/injection, schedule: Q01DX001 (ip), vehicle: saline with Tween-80): 101 % of control

O=C(NC1CCCCC1)OCc1c(COC(=O)NC2CCCCC2)c(-c2ccc(Cl)c(Cl)c2)n2c1CCC2
T/C (dose: 6.25 mg/kg/injection, schedule: Q01DX009 (ip), vehicle: Klucel (hydroxypropylcellulose) (HPC)): 94 % of control
T/C [17]: 119 % of control
T/C (dose: 25.0 mg/kg/injection, schedule: Q01DX009 (ip), vehicle: saline with Tween-80): 150 % of control and 168 % of control
T/C [2]: 161 % of control
T/C [14]: 166 % of control and 170 % of control and 174 % of control
T/C [3]: 189 % of control
T/C [16]: 91 % of control

C=C(C)CC1(C)C(=O)CCC1O (configuration not stated)
T/C [6]: 104 % of control
T/C [7]: 102 % of control
T/C [8]: 106 % of control

CC(=O)CNc1ccccc1C(N)=O
T/C [11]: 101 % of control
T/C [12]: 95 % of control
T/C [13]: 104 % of control

CCCCCCCCCCCCCCCCCCOC(=O)Cc1ccc(N(CCCl)CCCl)cc1
T/C (dose: 45.0 mg/kg/injection, schedule: Q01DX009 (ip), vehicle: saline with Tween-80): 168 % of control
T/C (dose: 90.0 mg/kg/injection, schedule: Q01DX009 (ip), vehicle: saline with Tween-80): 163 % of control
T/C (dose: 180.0 mg/kg/injection, schedule: Q01DX009 (ip), vehicle: saline with Tween-80): 150 % of control

CCO/C=C(\C)CC1([N+](=O)[O-])C(=O)c2ccccc2C1=O
T/C (dose: 60.0 mg/kg/injection, schedule: Q01DX005 (ip), vehicle: Klucel (hydroxypropylcellulose) (HPC)): 107 % of control
T/C (dose: 120.0 mg/kg/injection, schedule: Q01DX005 (ip), vehicle: Klucel (hydroxypropylcellulose) (HPC)): 107 % of control
T/C (dose: 240.0 mg/kg/injection, schedule: Q01DX005 (ip), vehicle: Klucel (hydroxypropylcellulose) (HPC)): 117 % of control

COC(OC)C1CC=CCCC1C(=O)O (configuration not stated)
T/C (dose: 60.0 mg/kg/injection, schedule: Q01DX005 (ip), vehicle: saline): 91 % of control
T/C (dose: 120.0 mg/kg/injection, schedule: Q01DX005 (ip), vehicle: saline): 107 % of control
T/C (dose: 240.0 mg/kg/injection, schedule: Q01DX005 (ip), vehicle: saline): 96 % of control

NCCc1ccccc1
T/C [18]: 104 % of control
T/C (dose: 100.0 mg/kg/injection, schedule: Q01DX009 (ip), vehicle: saline): 86 % of control

CCN1C(=O)C(=NO)C(=O)N(CC)C1=S.CCN1C(=O)C(=N[O-])C(=O)N(CC)C1=S.CCN1C(=O)C(=N[O-])C(=O)N(CC)C1=S.[Fe+3]
T/C (dose: 100.0 mg/kg/injection, schedule: Q04DX002 (ip), vehicle: saline with Tween-80): 94 % of control
T/C (dose: 200.0 mg/kg/injection, schedule: Q04DX002 (ip), vehicle: saline with Tween-80): 102 % of control

CCOP(=O)(Nc1ccc2c(c1)C(=O)c1ccccc1-2)OCC
T/C [11]: 102 % of control
T/C [12]: 96 % of control
T/C [13]: 96 % of control

COc1ccc(Oc2ccc(C(=O)C(CN(C)C)CN(C)C)cc2)cc1
T/C (dose: 3.75 mg/kg/injection, schedule: Q01DX005 (ip), vehicle: saline): 121 % of control
T/C (dose: 7.5 mg/kg/injection, schedule: Q01DX005 (ip), vehicle: saline): 124 % of control
T/C (dose: 30.0 mg/kg/injection, schedule: Q01DX005 (ip), vehicle: saline): 88 % of control

CC1=NCCc2cc3c(cc21)OCO3
T/C (dose: 25.0 mg/kg/injection, schedule: Q01DX001 (ip), vehicle: saline + alcohol): 99 % of control
T/C (dose: 50.0 mg/kg/injection, schedule: Q01DX001 (ip), vehicle: saline + alcohol): 97 % of control

C#Cc1cccc(N=Cc2cc([N+](=O)[O-])ccc2O)c1
T/C [9]: 100 % of control
T/C [10]: 99 % of control
T/C [19]: 93 % of control

COC(=O)c1nc2nnc(N)n2c(-c2ccc(Cl)cc2)c1C
T/C [6]: 100 % of control
T/C [7]: 101 % of control
T/C [8]: 96 % of control

O=C(O)c1cc2ccccc2c2c3c(ccc12)OCO3
T/C [6]: 95 % of control
T/C [7]: 100 % of control
T/C [8]: 100 % of control

O=C1CCC2CC1CCC2=O
T/C [17]: 111 % of control
T/C [1]: 102 % of control
T/C [2]: 109 % of control
T/C [3]: 111 % of control

COc1ccc(Sc2ccccn2)cc1OC
T/C [9]: 101 % of control
T/C [10]: 106 % of control
T/C [19]: 114 % of control

Cc1n[nH]c(=O)c2[nH]c3ccccc3c12
T/C [6]: 104 % of control
T/C [7]: 97 % of control
T/C [8]: 96 % of control

CCOC(=O)c1cn(C(=O)CCl)c2ccccc2c1=O
T/C [6]: 103 % of control
T/C [7]: 100 % of control
T/C [8]: 97 % of control

CC(C)C1=CC23CCC4C(C)(C(=O)O)CCCC4(C)C2CC1C1C(=O)N(CCCN(C)C)C(=O)C13 (configuration not stated)
T/C [6]: 104 % of control
T/C [7]: 99 % of control

Cn1c2ccccc2c2cnn3c(-c4ccccc4)nnc3c21
T/C (dose: 100.0 mg/kg/injection, schedule: Q01DX001 (ip), vehicle: Klucel (hydroxypropylcellulose) (HPC)): 105 % of control
T/C (dose: 200.0 mg/kg/injection, schedule: Q01DX001 (ip), vehicle: Klucel (hydroxypropylcellulose) (HPC)): 100 % of control
T/C (dose: 400.0 mg/kg/injection, schedule: Q01DX001 (ip), vehicle: Klucel (hydroxypropylcellulose) (HPC)): 100 % of control

Cn1ccc2c3c4ccccc4ccc3c3c(ccn3C)c21
T/C [11]: 197 % of control
T/C [12]: 177 % of control
T/C [13]: 239 % of control

CCOC(=O)/C(=C\Nc1cccc(OCc2ccccc2)c1)NC(=O)c1ccccc1
T/C [2]: 87 % of control
T/C [3]: 88 % of control
T/C [4]: 86 % of control and 96 % of control
T/C [5]: 97 % of control

COC1=CCC=C(C(C)(C)C)C1
T/C [6]: 98 % of control
T/C [7]: 94 % of control
T/C [8]: 103 % of control

CC1CCCC(C2CCCCCCC2O)N1 (configuration not stated)
T/C [20]: 100 % of control
T/C [21]: 92 % of control
T/C [22]: 97 % of control

C1CCC2OCN3CCCCC3CC2C1 (configuration not stated)
T/C (dose: 12.5 mg/kg/injection, schedule: Q01DX005 (ip), vehicle: saline): 107 % of control and 98 % of control
T/C (dose: 25.0 mg/kg/injection, schedule: Q01DX005 (ip), vehicle: saline): 99 % of control and 98 % of control
T/C [20]: 100 % of control and 111 % of control and 113 % of control
T/C [21]: 114 % of control and 118 % of control and 121 % of control

CCN(CC)CCCC(C)Nc1cc(-c2ccccc2)nc2cc(Cl)ccc12 (configuration not stated)
T/C [20]: 106 % of control
T/C [21]: 112 % of control
T/C [22]: 116 % of control

CCOC(=O)C(CC/C=C(\C)CC/C=C/COC(=O)N(C(C)C)C(C)C)P(=O)(OCC)OCC (configuration not stated)
T/C [9]: 109 % of control
T/C [10]: 106 % of control
T/C [19]: 109 % of control

COC1=Nc2ccccc2N2CCN=C12
T/C (dose: 12.5 mg/kg/injection, schedule: Q01DX009 (ip), vehicle: saline): 86 % of control
T/C (dose: 25.0 mg/kg/injection, schedule: Q01DX009 (ip), vehicle: saline): 100 % of control
T/C [18]: 100 % of control

CC[N+](C)(C)c1ccc(/C=C(/C#N)C(=O)OC)cc1
T/C [14]: 100 % of control
T/C [15]: 103 % of control

O=C(CCl)NNC(=O)CCl
T/C [17]: 117 % of control
